These results are taken from US20220249592A1, “MUSCLE QUALITY IMPROVEMENT AGENT” (AJINOMOTO CO., INC., priority 2019, published 2022).

In assay [1] the test system is mouse-derived muscle cell line C2C12. Put plainly: Muscle insulin signal (phosphorylated Akt/total Akt phosphorylation index) in C2C12 myotube cells exposed to palmitic acid (FFA). Format: cell-based. To be noted: for insulin signal that declined due to FFA: 500 μM. The protocol: Muscle anabolic signal was monitored by insulin signal, and the action of γ-glutamyl peptide on the decline of insulin signal was evaluated. As the γ-glutamyl peptide, the actions of γ-L-glutamyl-L-valine (γEV), γ-L-glutamyl-L-cysteine (γEC), and γ-L-glutamyl-L-valylglycine (γEVG) were evaluated.
The evaluation was performed using an evaluation system in which exposure of the mouse-derived muscle cell line C2C12 to saturated fatty acid results in a decline in insulin signal, as described below.
Using mouse C3H skeletal muscle myoblast cell line (C2C12 cell) (DS Pharma Biomedical Co., Ltd.), the evaluation was performed.
Induction of differentiation into myotube cells (Myotubes) was performed using cells with myoblast passage number of 12 to 18. Myoblasts were seeded in a 12-well (diameter=3 cm) plate at 0.3×10^5 to 0.5×10^5 cells/well. After confirmation that the cell proliferation state reached 90% confluent, the medium was replaced with DMEM supplemented with 2 (w/v) % horse serum (HS) and 1 (w/v) % penicillin-streptomycin-glutamine (2 (w/v) % HS, 1 (w/v) % P/S, 1 (w/v) % Gln/DMEM), and differentiation into myotube cells (Myotubes) was induced. After confirmation of differentiation into myotube cells (Myotubes), a muscle insulin signal evaluation system was constructed, and the action of each of γEV, γEC, and γEVG was evaluated using the constructed evaluation system.
The myotube cells (Myotubes) were cultured overnight (17 hr to 24 hr) at 37° C. in a 0.5 mM palmitic acid (FFA)/0.5 (w/v) % albumin (BSA)/DMEM culture medium in the presence of 5 (v/v) % carbon dioxide.
After culturing overnight, the cells were preincubated for about 2 hr in DMEM (BSA/FFA free), stimulated by incubation (15 min to 20 min) with 100 nM insulin, and the myotube cells were collected (each n=1 to 2). From the collected cells, proteins were extracted with RIPA (Radio-Immunoprecipitation Assay) buffer (Cell Signaling Technologies Inc.), adjusted to a final protein concentration of 0.5 mg/mL, and used as samples.
The expression levels of phosphorylated Akt (pAkt) (Ser473) (#9271S; Cell Signaling Technologies Inc.), and total Akt (#9272S; Cell Signaling Technologies Inc.) in the above-mentioned sample were quantified by the Western blotting (WB) method. The expression level of each protein was quantified using Western blot-chemiluminescent imaging system (Fusion FX) (Vilber-Lourmat Inc.).
Each γ-glutamyl peptide was added simultaneously with FFA, and the muscle quality-improving effect was examined with the recovery of the muscle insulin signal as an index. The final concentration of γEV was adjusted to 100 μM or 300 μM, and the final concentrations of γEC and […] were adjusted to 500 μM. As a positive control, an antioxidative active substance N-acetylcysteine (NAC) 5 mM was used.
From the measurement results of the expression levels of phosphorylated Akt (Ser473) and total Akt, the ratio of phosphorylated Akt and total Akt with insulin stimulation to the ratio of phosphorylated Akt and total Akt without insulin stimulation [(pAkt/Total Akt) Insulin+]/[(pAkt/Total Akt) Insulin-] was determined and shown in FIGS. 1 and 2 as the phosphorylation index (stimulation index). In the Figures, the average values of the calculated phosphorylation indices are shown in bar graphs. The symbols (●, ▪, ▴, ▾, □, Δ, ∇) in the Figures indicate the calculated values of the phosphorylation index obtained for each sample.

For assay [2], the system named is C57BL/6J mice. Put plainly: Amount of neutral fat in muscle and palmitic acid in neutral fat in muscle of mice under motility limitation. The class given is in vivo, mouse. The note with it: 0.2 wt % in feed, narrow cage, 28 days, vs motility limitation+lard ingestion group. The source says: (§1) Using C57BL/6J mice, the effect of ingestion of γ-glutamyl peptide on the changes in muscle quality and muscle function induced by narrowing the area of the cage used for rearing to limit exercise was investigated.
C57BL/6J mice were grouped into 3 groups shown in Table 2 such that the body weight, grip strength, and lean body weight would be uniform, and one mouse was housed per cage and reared. As cages for rearing mice, a wide cage (width 220 mm×length 320 mm×height 165 mm) and a narrow cage (width 110 mm×length 160 mm×height 130 mm) were used. […]
After the completion of the above-mentioned grip strength measurement, muscles (gastrocnemius muscles) were collected from the mice in each group, and the amount of neutral fat in the muscle, which is one of the indicators of muscle quality, and the amount of palmitic acid in neutral fat in the muscle were measured.
Fat ingredient was extracted according to a chloroform/methanol method from the collected muscle, and the neutral fat content was measured by a colorimetric method at 600 nm, as well as the neutral fat was fractionated and collected by thin layer chromatography (TLC). […] The neutral fat fraction was extracted again by a chloroform/methanol method, and the composition of the fatty acid in the neutral fat was analyzed, and the amount of palmitic acid was measured. The composition of the fatty acid was analyzed by gas chromatography. […]

Assay [3] relates to Sprague-Dawley (SD) male rats. Put plainly: Muscle (tibialis anterior muscle) weight in rats fed a high-fat diet with exercise load. The class given is in vivo, rat. To be noted: 0.2 wt % in 30 wt % fat feed plus exercise, 6th week; compared with exercise only group; FIG. 3. The procedure:
(§2) Furthermore, the exercise groups (exercise group and exercise+γEV group) were made to perform exercise once a week under the exercise load conditions shown below.
(§3) At the 5th week of feeding the high-fat diet, the exercise function (walking function) was evaluated as follows. At the 6th week of feeding the high-fat diet, an autopsy was performed, and the muscle (tibialis anterior muscle) weight was measured. As described below, the muscle insulin sensitivity was evaluated, the fatty acid composition in muscle diacylglycerol was analyzed, and the muscle function was evaluated.
The exercise was performed using the left leg of the rat by applying a local resistance exercise load. A rat under isoflurane anesthesia was placed in an ankle exercise device for small animals (Bioresearch Center K.K.), a skin stimulation electrode was attached to the tibialis anterior muscle, and contraction was caused by electrical stimulation. At the same time, the tibialis anterior muscle was pulled in the direction opposite to the contraction direction, and an extension load was applied. The exercise load setting conditions are shown below.
(i) contraction (electric) load condition: 4 mA to 5 mA, 100 Hz, 1100 msec
(ii) extension load condition: angle of left leg joint was extended from 90° to 135° at rate=100 deg/sec […]

The test system of assay [4] is C57BL/6J mice. The assay is described as follows: Grip strength (muscle strength) of mice under motility limitation. The class given is in vivo, mouse. The note with it: 0.2 wt % in feed, narrow cage, 28 days; vs motility limitation+lard ingestion group; FIG. 8.
Excerpt: as §1
C57BL/6J mice were grouped into 3 groups shown in Table 2 such that the body weight, grip strength, and lean body weight would be uniform, and one mouse was housed per cage and reared. As cages for rearing mice, a wide cage (width 220 mm×length 320 mm×height 165 mm) and a narrow cage (width 110 mm×length 160 mm×height 130 mm) were used. In addition, as an experimental diet, a diet containing 20 wt % casein and 7 wt % lard or a diet containing 20 wt % casein, 7 wt % lard, and 0.2 wt % γ-glutamyl valine (γEV) was supplied.
After rearing for 28 days under the above-mentioned conditions, the grip strength of each mouse was measured and the muscle strength was evaluated.
The grip strength of the mouse was measured using a grip strength meter for small animals (“Chatillon”, Columbus Instruments). […] The aforementioned grip strength was consecutively measured five times, and the average value was calculated and used as the grip strength value of each individual. […]

The subject of assay [5] is insulin receptor substrate-1 (IRS-1). The assay is described as follows: Muscle insulin sensitivity (IRS-1 serine phosphorylation activity, Western blotting) in rats fed a high-fat diet. The class given is in vivo, rat. To be noted: 0.2 wt % in 30 wt % fat feed plus exercise, 6th week; vs high fat group p<0.01; FIG. 5. The protocol: as §2, §3
As an index of muscle insulin sensitivity, insulin receptor substrate-1 (IRS-1) serine phosphorylation activity was evaluated by a Western blotting (WB) method. […]
As the antibodies, anti-Phospho-IRS-1 (Ser307) antibody (Cell Signaling Technologies Inc.), and anti-total IRS-1 antibody (Cell Signaling Technologies Inc.) were used, the expression levels of Phospho-IRS-1 (Ser307) and total IRS-1 were quantified using Western blot-chemiluminescent imaging system (Fusion FX) (Vilber-Lourmat Inc.).
As an index of insulin sensitivity, the ratio of Phospho-IRS-1 (Ser307) expression level to total IRS-1 expression level [(Phospho-IRS-1 (Ser307))/(total IRS-1)] was determined. […]

For assay [6], the system named is Sprague-Dawley (SD) male rats. The assay is described as follows: Walking function (stride of walking, length and width) in rats fed a high-fat diet. Format: in vivo, rat. The note with it: 0.2 wt % in 30 wt % fat feed plus exercise, 5th week; widening of width and narrowing of length; FIG. 4. The protocol: as §2, §3
The walking function was evaluated by walking the rat without an anesthesia and observing the state of walking. India ink was applied to the plantar part of the both legs of the rat, and the rat was made to walk through a cylindrical tunnel with Japanese writing paper laid therein and the stride of walking (width and length) was measured based on the trace of the right leg and the left leg after walking, and the walking function was evaluated.
The respective measurement or evaluation or analysis results of the above-mentioned (2) to (4) are shown by mean±standard error in FIG. 3 to FIG. 7. […]

Assay [7] deals with Sprague-Dawley (SD) male rats. Put plainly: Amount of diacylglycerol and fatty acid composition in muscle diacylglycerol in rats fed a high-fat diet. The class given is in vivo, rat. The note with it: 0.2 wt % in 30 wt % fat feed plus exercise, 6th week, vs high fat group p<0.01. The procedure: as §2, §3
The amount of diacylglycerol (DAG) in muscle, which is highly related to muscle insulin sensitivity, was analyzed, and the composition of fatty acid contained in DAG was analyzed.
The fat ingredient in the muscle collected during autopsy was extracted according to a chloroform/methanol method, and the DAG fraction was extracted using thin layer chromatography (TLC). […] DAG was quantified at 600 nm by a colorimetric method.
The DAG fraction after development was extracted by a chloroform/methanol method, and fatty acid in DAG was quantified. As fatty acids, 9 kinds of fatty acids (lauric acid, myristic acid, palmitoleic acid, palmitic acid, linolenic acid, linoleic acid, oleic acid, stearic acid, arachidonic acid) mainly contained in the living body were selected and analyzed using gas chromatography. […]

[8] abbreviates: added simultaneously with 0.5 mM FFA, FIG. 2.

Each structure is given as a SMILES string. *1 amine or outer side, *2 acyl side, *3 side chain or, on linkers, in order; H or OH if unused. Where a SMILES comes first, the peptide text is derived from it. γGlu = O=C(O)[C@H](CCC(=O)[*:2])N[*:1]

On to `N[C@@H](CCC(=O)N[C@@H](CS)C(=O)O)C(=O)O` [γEC, γ-L-glutamyl-L-cysteine], for which the “insulin signal that declined due to FFA” value in assay [1] (setting [8]) is recorded as “increase the insulin signal”.
`CC(C)[C@H](NC(=O)CC[C@H](N)C(=O)O)C(=O)O` [γEV, γ-L-glutamyl-L-valine]: in the assay with C57BL/6J mice [2] (FIG. 9), the “amount of neutral fat in the muscle (gastrocnemius muscle)” value is reported as “significantly (p<0.1) small”. In addition, in the assay on C57BL/6J mice [2] (FIG. 10), the “amount of palmitic acid in the neutral fat in the muscle (gastrocnemius muscle)” value is “significantly (p<0.1) small”. Besides, the “muscle insulin signal increasing action compared with NAC” value in assay [1] (100 μM vs NAC 5 mM, FIG. 2) is listed as “superior to that of NAC”; in assay [1] (300 μM vs NAC 5 mM, FIG. 1) it was “equal to or higher than that of NAC”. Also, in assay [1] (300 μM, added simultaneously with 0.5 mM FFA, 100 nM insulin stimulation, FIG. 1), the “decline in muscle insulin signal due to FFA (phosphorylation index)” value is listed as “recovered”. Further, the “muscle weight (tibialis anterior muscle, weight ratio to body weight)” value in assay [3] was “increase in the muscle weight tended to be promoted”. For the same compound, in the assay on C57BL/6J mice [4], the grip strength entry is “significantly (p<0.05) improved”. Besides, the “decline in muscle insulin sensitivity [(Phospho-IRS-1 (Ser307))/(total IRS-1)]” value in assay [5] is reported as “significantly suppressed”. For the same compound, the “stride of walking (length and width) during walking” value in assay [6] was “suppressed to the same levels as in the normal group”. Besides, the “increase in the amount of DAG in skeletal muscle” value in assay [7] (FIG. 6) is “significantly suppressed”. Further, the “amount of palmitic acid in muscle DAG” value in assay [7] (FIG. 7) was “significantly lower than in the high fat group”.
Regarding `CC(C)[C@H](NC(=O)CC[C@H](N)C(=O)O)C(=O)NCC(=O)O` [γEVG, γ-L-glutamyl-L-valylglycine] (γGlu-Val-Gly-OH), the “insulin signal that declined due to FFA” value in assay [1] (setting [8]) is listed as “increase the insulin signal”.
